# According to ChEMBL document CHEMBL3885881, “DrugMatrix”:
# Species on record: Rattus norvegicus
# Test: DrugMatrix - Regimen: Daily Repeat
# Assay type: toxicity, organism-based, Sprague-Dawley
# Parameters: regimen Daily Repeat, gender Male, age 6-8 weeks
# Conditions: in vivo, po, route oral GAVAGE, vehicle .5 % CMC; for BASOPHIL / EOSINOPHIL / ERYTHROCYTE COUNT / HEMATOCRIT / LEUKOCYTE COUNT / LYMPHOCYTE / MEAN CORPUSCULAR HEMOGLOBIN / MEAN CORPUSCULAR HEMOGLOBIN CONCENTRATION / MEAN CORPUSCULAR VOLUME / MONOCYTE / NEUTROPHIL / PLATELET COUNT: tissue Blood; for ALANINE AMINOTRANSFERASE / ALBUMIN / ALKALINE PHOSPHATASE / ASPARTATE AMINOTRANSFERASE / BLOOD UREA NITROGEN / CHLORIDE / CHOLESTEROL / CREATINE PHOSPHOKINASE / CREATININE / GLUCOSE / PHOSPHORUS / POTASSIUM / SODIUM / TOTAL BILIRUBIN / TOTAL PROTEIN: tissue Plasma
# [1] = 0 mg/kg, 72 h, dose level Control, time 3 day
# [2] = 0 mg/kg, 120 h, dose level Control, time 5 day
# [3] = 3 mg/kg, 72 h, dose level Low, time 3 day
# [4] = 3 mg/kg, 120 h, dose level Low, time 5 day
structure (smiles),measurement,setting,value
NCCCC(O)(P(=O)(O)O)P(=O)(O)O [ALENDRONIC ACID],BASOPHIL,[1],0%
same,EOSINOPHIL,[1],0%
same,ERYTHROCYTE COUNT,[1],6.19 x10E6/uL
same,HEMATOCRIT,[1],36.94%
same,LEUKOCYTE COUNT,[1],11.54 x10E3/uL
same,LYMPHOCYTE,[1],84.8%
same,MEAN CORPUSCULAR HEMOGLOBIN,[1],23.58 pg
same,MEAN CORPUSCULAR HEMOGLOBIN CONCENTRATION,[1],39.44 G/DL
same,MEAN CORPUSCULAR VOLUME,[1],59.76 fL
same,MONOCYTE,[1],1.4%
same,NEUTROPHIL,[1],13.8%
same,PLATELET COUNT,[1],1068.8 x10E3/uL
same,ALANINE AMINOTRANSFERASE,[1],38.17 u/L
same,ALBUMIN,[1],3.88 G/DL
same,ALKALINE PHOSPHATASE,[1],391.33 u/L
same,ASPARTATE AMINOTRANSFERASE,[1],69.83 u/L
same,BLOOD UREA NITROGEN,[1],15 mg/dL
same,CHLORIDE,[1],104.17 MEQ/L
same,CHOLESTEROL,[1],72.17 mg/dL
same,CREATINE PHOSPHOKINASE,[1],174.33 u/L
same,CREATININE,[1],0.58 mg/dL
same,GLUCOSE,[1],192.67 mg/dL
same,PHOSPHORUS,[1],10.52 mg/dL
same,POTASSIUM,[1],6.8 MEQ/L
same,SODIUM,[1],149.67 MEQ/L
same,TOTAL BILIRUBIN,[1],0.78 mg/dL
same,TOTAL PROTEIN,[1],6.28 G/DL
same,BASOPHIL,[2],0%
same,EOSINOPHIL,[2],0.17%
same,ERYTHROCYTE COUNT,[2],6.72 x10E6/uL
same,HEMATOCRIT,[2],40.02%
same,LEUKOCYTE COUNT,[2],9.5 x10E3/uL
same,LYMPHOCYTE,[2],87.17%
same,MEAN CORPUSCULAR HEMOGLOBIN,[2],23.57 pg
same,MEAN CORPUSCULAR HEMOGLOBIN CONCENTRATION,[2],39.62 G/DL
same,MEAN CORPUSCULAR VOLUME,[2],59.55 fL
same,MONOCYTE,[2],1.67%
same,NEUTROPHIL,[2],11%
same,PLATELET COUNT,[2],1053.67 x10E3/uL
same,ALANINE AMINOTRANSFERASE,[2],26.33 u/L
same,ALBUMIN,[2],4.02 G/DL
same,ALKALINE PHOSPHATASE,[2],316.67 u/L
same,ASPARTATE AMINOTRANSFERASE,[2],61.33 u/L
same,BLOOD UREA NITROGEN,[2],18.67 mg/dL
same,CHLORIDE,[2],108 MEQ/L
same,CHOLESTEROL,[2],65.17 mg/dL
same,CREATINE PHOSPHOKINASE,[2],161.17 u/L
same,CREATININE,[2],0.75 mg/dL
same,GLUCOSE,[2],177.33 mg/dL
same,PHOSPHORUS,[2],9.72 mg/dL
same,POTASSIUM,[2],6.18 MEQ/L
same,SODIUM,[2],150.5 MEQ/L
same,TOTAL BILIRUBIN,[2],0.68 mg/dL
same,TOTAL PROTEIN,[2],6.55 G/DL
same,BASOPHIL,[3],0%
same,EOSINOPHIL,[3],0%
same,ERYTHROCYTE COUNT,[3],5.67 x10E6/uL
same,HEMATOCRIT,[3],34.63%
same,LEUKOCYTE COUNT,[3],9.73 x10E3/uL
same,LYMPHOCYTE,[3],86.33%
same,MEAN CORPUSCULAR HEMOGLOBIN,[3],24.23 pg
same,MEAN CORPUSCULAR HEMOGLOBIN CONCENTRATION,[3],39.67 G/DL
same,MEAN CORPUSCULAR VOLUME,[3],61.13 fL
same,MONOCYTE,[3],1.33%
same,NEUTROPHIL,[3],12.33%
same,PLATELET COUNT,[3],1035.67 x10E3/uL
same,ALANINE AMINOTRANSFERASE,[3],34 u/L
same,ALBUMIN,[3],3.77 G/DL
same,ALKALINE PHOSPHATASE,[3],322.33 u/L
same,ASPARTATE AMINOTRANSFERASE,[3],69 u/L
same,BLOOD UREA NITROGEN,[3],16 mg/dL
same,CHLORIDE,[3],105.67 MEQ/L
same,CHOLESTEROL,[3],63 mg/dL
same,CREATINE PHOSPHOKINASE,[3],139.33 u/L
same,CREATININE,[3],0.6 mg/dL
same,GLUCOSE,[3],171 mg/dL
same,PHOSPHORUS,[3],10.3 mg/dL
same,POTASSIUM,[3],6.6 MEQ/L
same,SODIUM,[3],150 MEQ/L
same,TOTAL BILIRUBIN,[3],0.57 mg/dL
same,TOTAL PROTEIN,[3],5.97 G/DL
same,BASOPHIL,[4],0%
same,EOSINOPHIL,[4],0.67%
same,ERYTHROCYTE COUNT,[4],6.7 x10E6/uL
same,HEMATOCRIT,[4],40.67%
same,LEUKOCYTE COUNT,[4],10.57 x10E3/uL
same,LYMPHOCYTE,[4],75%
same,MEAN CORPUSCULAR HEMOGLOBIN,[4],24.1 pg
same,MEAN CORPUSCULAR HEMOGLOBIN CONCENTRATION,[4],39.7 G/DL
same,MEAN CORPUSCULAR VOLUME,[4],60.77 fL
same,MONOCYTE,[4],3%
same,NEUTROPHIL,[4],21.33%
same,PLATELET COUNT,[4],904.33 x10E3/uL
same,ALANINE AMINOTRANSFERASE,[4],30.67 u/L
same,ALBUMIN,[4],4.1 G/DL
same,ALKALINE PHOSPHATASE,[4],352.33 u/L
same,ASPARTATE AMINOTRANSFERASE,[4],64 u/L
same,BLOOD UREA NITROGEN,[4],14.67 mg/dL
same,CHLORIDE,[4],106 MEQ/L
same,CHOLESTEROL,[4],64.33 mg/dL
same,CREATINE PHOSPHOKINASE,[4],130.33 u/L
same,CREATININE,[4],0.77 mg/dL
same,GLUCOSE,[4],191 mg/dL
same,PHOSPHORUS,[4],10.83 mg/dL
same,POTASSIUM,[4],6.4 MEQ/L
same,SODIUM,[4],150.67 MEQ/L
same,TOTAL BILIRUBIN,[4],0.83 mg/dL
same,TOTAL PROTEIN,[4],6.73 G/DL
